≈ marks a conversion by molar mass, not a printed value. Where a name gives a salt, the structure may show the parent alone.
Assays:
P. aeruginosa biofilms = test: Biofilm growth assay (spreading biofilm on semi-solid agar), P. aeruginosa; assay type: cell-based; conditions: Pseudomonas aeruginosa, biofilm growth assay, overnight 37° C., vs negative controls; Tables 1-5; read-out: P. aeruginosa: concentration that reduces the area of the spreading biofilm by greater than or equal to 85%
Summary of the method: (§1)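 Compound added to semi-solid agar: M8 with 0.2% glucose, 100 μM CaCl2, 1 mM MgSO4, 0.5% Casamino acids (P. aeruginosa) or LB with 0.6% agar, 0.5% glucose (E. coli). Center-inoculated with 5 μL overnight culture, incubated overnight at 37 °C; value is concentration (μg/ml) reducing spreading area ≥85% versus negative controls.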

E. coli biofilms = test: Biofilm growth assay (spreading biofilm on semi-solid agar), E. coli; assay type: cell-based; conditions: Escherichia coli, biofilm growth assay, overnight 37° C., vs negative controls; Tables 1-5; read-out: E. coli: concentration that reduces the area of the spreading biofilm by greater than or equal to 85%
Summary of the method: as §1

Row | Compound | IC85 (P. aeruginosa biofilms) | melting point | IC85 (E. coli biofilms)
1 | Cn1nc([C@]23CCC(C)(C)CC2C2=CCC4[C@@]5(C)Cc6c(n[nH]c6N)C(C)(C)C5CC[C@@]4(C)[C@]2(C)CC3)cc1N (stereo partly drawn) [Compound 72, (4aS,6aS,6bR,8aR,13aR,15bS)-4-a-(5-Amino-1-methyl-1H-pyrazol-3-yl)-2,2,6a,6b,9,9,13a-heptamethyl-2,3,4,4a,5,6,6a,6b,7,8,8a,9,11,13,13a,13b,14,15b-octadecahydro-1H-chryseno[1,2-f]indazol-12-amine] | 1 µg/mL (≈ 1.84 µM) | 195 to 210 °C (dec.) | > 2 µg/mL
2 | CC1(C)CC[C@]2(C(=O)O)CC[C@]3(C)C(=C(c4cc[nH]c4)CC4[C@@]5(C)Cc6c(n[nH]c6N)C(C)(C)[C@@H]5CC[C@]43C)[C@@H]2C1 (stereo partly drawn) [Example 6, (4aS,6aS,6bR,8aR,13aR,15bS)-12-Amino-2,2,6a,6b,9,9,13a-heptamethyl-15-(1H-pyrrol-3-yl)-2,3,4,4a,5,6,6a,6b,7,8,8a,9,11,13,13a,13b,14,15b-octadecahydro-1H-chryseno[1,2-f]indazole-4-a-carboxylic acid] | 0.125 µg/mL (≈ 0.224 µM) | > 300 °C | 0.25 µg/mL (≈ 0.447 µM)
3 | CC1(C)CC[C@]2(C(=O)Nc3cc(N)n[nH]3)CC[C@]3(C)C(=CCC4[C@@]5(C)Cc6c(n[nH]c6N)C(C)(C)C5CC[C@]43C)C2C1 (stereo partly drawn) [Compound 69, (4aS,6aS,6bR,13aR)-12-amino-N-(3-amino-1H-pyrazol-5-yl)-2,2,6a,6b,9,9,13a-heptamethyl-2,3,4,4a,5,6,6a,6b,7,8,8a,9,11,13,13a,13b,14,15b-octadecahydro-1H-chryseno[1,2-f]indazole-4-a-carboxamide] | 1 µg/mL (≈ 1.74 µM) | > 300 °C | 1 µg/mL (≈ 1.74 µM)
4 | CC1(C)CC[C@]2(C(=O)n3cnc(S)n3)CC[C@]3(C)C(=CCC4[C@@]5(C)Cc6c(n[nH]c6N)C(C)(C)C5CC[C@]43C)C2C1 (stereo partly drawn) (as salt: ammonium) [Compound 76, ((4aS,6aS,6bR,13aR)-12-Amino-2,2,6a,6b,9,9,13a-heptamethyl-2,3,4,4a,5,6,6a,6b,7,8,8a,9,11,13,13a,13b,14,15b-octadecahydro-1H-chryseno[1,2-f]indazol-4-a-yl)(3-mercapto-1H-1,2,4-triazol-1-yl)methanone] |  | 260 to 280 °C (dec.) | 
5 | Cc1nnc(S)n1NC(=O)[C@]12CCC(C)(C)CC1C1=CCC3[C@@]4(C)Cc5c(n[nH]c5N)C(C)(C)C4CC[C@@]3(C)[C@]1(C)CC2 (stereo partly drawn) (as salt: ammonium) [Compound 77, (4aS,6aS,6bR,13aR)-12-Amino-N-(3-mercapto-5-methyl-4H-1,2,4-triazol-4-yl)-2,2,6a,6b,9,9,13a-heptamethyl-2,3,4,4a,5,6,6a,6b,7,8,8a,9,11,13,13a,13b,14,15b-octadecahydro-1H-chryseno[1,2-f]indazole-4-a-carboxamide] |  | 250 to 270 °C (dec.) | 
6 | CC1(C)CC[C@]2(c3n[nH]c(O)c3N3CCNCC3)CC[C@]3(C)C(=CCC4[C@@]5(C)Cc6c(n[nH]c6N)C(C)(C)C5CC[C@]43C)C2C1 (stereo partly drawn) [Compound 90, 3-((4aS,6aS,6bR,13aR)-12-Amino-2,2,6a,6b,9,9,13a-heptamethyl-2,3,4,4a,5,6,6a,6b,7,8,8a,9,11,13,13a,13b,14,15b-octadecahydro-1H-chryseno[1,2-f]indazol-4-a-yl)-4-(piperazin-1-yl)-1H-pyrazol-5-ol] | 0.5 µg/mL (≈ 0.812 µM) | > 300 °C | 1 µg/mL (≈ 1.62 µM)
7 | CC1(C)CC[C@]2(c3n[nH]c(O)c3CCN)CC[C@]3(C)C(=C(c4ccoc4CN4CCOCC4)CC4[C@@]5(C)Cc6c(n[nH]c6N)C(C)(C)[C@@H]5CC[C@]43C)[C@@H]2C1 (stereo partly drawn) [Compound 92, 3-((4aS,6aS,6bR,8aR,13aR,15bS)-12-Amino-2,2,6a,6b,9,9,13a-heptamethyl-15-(2-(morpholinomethyl)furan-3-yl)-2,3,4,4a,5,6,6a,6b,7,8,8a,9,11,13,13a,13b,14,15b-octadecahydro-1H-chryseno[1,2-f]indazol-4-a-yl)-4-(2-aminoethyl)-1H-pyrazol-5-ol] | 0.5 µg/mL (≈ 0.676 µM) | 238 to 240 °C | 2 µg/mL (≈ 2.7 µM)
8 | CN(C)c1cc(C2=C3[C@@H]4CC(C)(C)CC[C@]4(C(=O)O)CC[C@@]3(C)[C@]3(C)CC[C@H]4C(C)(C)c5n[nH]c(N)c5C[C@]4(C)C3C2)ccn1 (stereo partly drawn) [Example 22, (4aS,6aS,6bR,8aR,13aR,15bS)-12-Amino-15-(2-(dimethylamino)pyridin-4-yl)-2,2,6a,6b,9,9,13a-heptamethyl-2,3,4,4a,5,6,6a,6b,7,8,8a,9,11,13,13a,13b,14,15b-octadecahydro-1H-chryseno[1,2-f]indazole-4-a-carboxylic acid] | 1 µg/mL (≈ 1.63 µM) | > 300 °C | > 2 µg/mL
9 | CC1(C)CC[C@]2(C(=O)Sc3nnc(N)[nH]3)CC[C@]3(C)C(=C(c4cccnc4)CC4[C@@]5(C)Cc6c(n[nH]c6N)C(C)(C)[C@@H]5CC[C@]43C)[C@@H]2C1 (stereo partly drawn) [Compound 91, (4aS,6aS,6bR,8aR,13aR,15bS)—S-5-Amino-4H-1,2,4-triazol-3-yl 12-amino-2,2,6a,6b,9,9,13a-heptamethyl-15-(pyridin-3-yl)-2,3,4,4a,5,6,6a,6b,7,8,8a,9,11,13,13a,13b,14,15b-octadecahydro-1H-chryseno[1,2-f]indazole-4-a-carbothioate] | 1 µg/mL (≈ 1.49 µM) | > 300 °C | 1 µg/mL (≈ 1.49 µM)
10 | CC1(C)CC[C@]2(C(=O)O)CC[C@]3(C)C(=C(c4c[nH]c(CN5CCOCC5)c4)CC4[C@@]5(C)Cc6c(n[nH]c6N)C(C)(C)[C@@H]5CC[C@]43C)[C@@H]2C1 (stereo partly drawn) [Example 9, (4aS,6aS,6bR,8aR,13aR,15bS)-12-Amino-2,2,6a,6b,9,9,13a-heptamethyl-15-(5-(morpholinomethyl)-1H-pyrrol-3-yl)-2,3,4,4a,5,6,6a,6b,7,8,8a,9,11,13,13a,13b,14,15b-octadecahydro-1H-chryseno[1,2-f]indazole-4-a-carboxylic acid] | 0.5 µg/mL (≈ 0.76 µM) | 270 to 280 °C (dec.) | 1 µg/mL (≈ 1.52 µM)
11 | CC1(C)CC[C@]2(C(=O)Nc3nnc(N)s3)CC[C@]3(C)C(=CCC4[C@@]5(C)Cc6c(n[nH]c6N)C(C)(C)C5CC[C@]43C)C2C1 (stereo partly drawn) (as salt: ammonium) [Compound 71, (4aS,6aS,6bR,13aR)-12-Amino-N-(5-amino-1,3,4-thiadiazol-2-yl)-2,2,6a,6b,9,9,13a-heptamethyl-2,3,4,4a,5,6,6a,6b,7,8,8a,9,11,13,13a,13b,14,15b-octadecahydro-1H-chryseno[1,2-f]indazole-4-a-carboxamide] |  | 280 to 300 °C (dec.) | 
12 | CC1(C)CC[C@]2(C(=O)O)CC[C@]3(C)C(=C(c4cccc(O)c4)CC4[C@@]5(C)Cc6c(n[nH]c6N)C(C)(C)C5CC[C@]43C)C2C1 (stereo partly drawn) (as salt: ammonium) [Example 16, (4aS,6aS,6bR,13aR)-12-Amino-15-(3-hydroxyphenyl)-2,2,6a,6b,9,9,13a-heptamethyl-2,3,4,4a,5,6,6a,6b,7,8,8a,9,11,13,13a,13b,14,15b-octadecahydro-1H-chryseno[1,2-f]indazole-4-a-carboxylic acid] |  | 260 to 280 °C (dec.) | 
13 | C[C@@H]1c2n[nH]c(N)c2C[C@]2(C)C3CC=C4[C@@H]5CC(C)(C)CC[C@]5(C(=O)O)CC[C@@]4(C)[C@]3(C)CC[C@@H]12 (stereo partly drawn) (as salt: ammonium) [Example 3, (4aS,6aS,6bR,8aS,9S,13aS,15bS)-12-Amino-2,2,6a,6b,9,13a-hexamethyl-2,3,4,4a,5,6,6a,6b,7,8,8a,9,11,13,13a,13b,14,15b-octadecahydro-1H-chryseno[1,2-f]indazole-4-a-carboxylic acid] |  | > 300 °C | 
14 | CC1(C)CC[C@]2(c3n[nH]c(O)c3N3CCOCC3)CC[C@]3(C)C(=CCC4[C@@]5(C)Cc6c(n[nH]c6N)C(C)(C)[C@@H]5CC[C@]43C)[C@@H]2C1 (stereo partly drawn) (as salt: ammonium) [Compound 88, 3-((4aS,6aS,6bR,13aR)-12-Amino-2,2,6a,6b,9,9,13a-heptamethyl-2,3,4,4a,5,6,6a,6b,7,8,8a,9,11,13,13a,13b,14,15b-octadecahydro-1H-chryseno[1,2-f]indazol-4-a-yl)-4-morpholino-1H-pyrazol-5-ol] |  | > 300 °C | 
15 | CC1(C)CC[C@]2(C(=O)O)CC[C@]3(C)C(=C(c4ccc5c(c4)CCN5)CC4[C@@]5(C)Cc6c(n[nH]c6N)C(C)(C)[C@@H]5CC[C@]43C)[C@@H]2C1 (stereo partly drawn) (as salt: ammonium) [Example 11, (4aS,6aS,6bR,13aR)-12-Amino-15-(indolin-5-yl)-2,2,6a,6b,9,9,13a-heptamethyl-2,3,4,4a,5,6,6a,6b,7,8,8a,9,11,13,13a,13b,14,15b-octadecahydro-1H-chryseno[1,2-f]indazole-4-a-carboxylic acid] |  | 170 to 190 °C (dec.) | 
16 | CCC1=C2[C@@H]3CC(C)(C)CC[C@]3(C(=O)O)CC[C@@]2(C)[C@]2(C)CC[C@H]3C(C)(C)c4n[nH]c(N)c4C[C@]3(C)C2C1 (stereo partly drawn) (as salt: ammonium) [Example 14, (4aS,6aS,6bR,8aR,13aR,15bS)-12-Amino-15-ethyl-2,2,6a,6b,9,9,13a-heptamethyl-2,3,4,4a,5,6,6a,6b,7,8,8a,9,11,13,13a,13b,14,15b-octadecahydro-1H-chryseno[1,2-f]indazole-4-a-carboxylic acid] |  | > 300 °C | 
17 | CC1(C)CC[C@]2(C(=O)O)CC[C@]3(C)C(=C(c4ccco4)CC4[C@@]5(C)Cc6c(n[nH]c6N)C(C)(C)[C@@H]5CC[C@]43C)[C@@H]2C1 (stereo partly drawn) (as salt: ammonium) [Example 7, (4aS,6aS,6bR,13aR)-12-Amino-15-(furan-2-yl)-2,2,6a,6b,9,9,13a-heptamethyl-2,3,4,4a,5,6,6a,6b,7,8,8a,9,11,13,13a,13b,14,15b-octadecahydro-1H-chryseno[1,2-f]indazole-4-a-carboxylic acid] |  | 250 to 270 °C (dec.) | 

Source: patent US8324264B1, “Inhibitors of bacterial biofilms and related methods” (Sequoia Sciences, Inc., priority 2011, dated 2012)
